In the supplement of paper PMC10949913:

Columns and labels:
Details in all cases: 48 h
CU-ACC1 [1] = assay: AC50 viability; higher = less potent
Method in brief: (§1)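 Three adrenocortical carcinoma cell lines in 1,536-well plates received 23 nL of each library compound at 11 concentrations and were read with CellTiter-Glo after 48 h, with 15 minutes at room temperature before measuring luminescence. Vehicle and empty-well controls served for per-plate normalisation. AC50 and area under the curve were extracted from fitted concentration-response curves, discarding all curve classes other than inhibitory or non-responding.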

CU-ACC1 [2] = assay: area under concentration-response curve (viability) (AUC (a.u.)); higher = less active
Method in brief: as §1

NCI-H295R = assay: as above
Method in brief: as §1

CU-ACC2 = assay: as above
Method in brief: as §1

| SMILES | AC50 viability (CU-ACC1 [1]) [µM] | area under concentration-response curve (CU-ACC1 [2]) | area under concentration-response curve (NCI-H295R) | area under concentration-response curve (CU-ACC2) |
| --- | --- | --- | --- | --- |
| c1ccc2c(-c3cnn4cc(-c5ccc(OCCN6CCOCC6)cc5)cnc34)ccnc2c1 | 4.56 | 395 | 568 | 637 |
| COc1nnc2ccc(N3CCC(c4ccc(OCCN5CCN(C)C(=O)[C@H]5C)cc4)CC3)nn12 | 0.263 | 468 | 474 | 449 |
| CC#C[C@@H](CC(=O)O)c1ccc(OCc2cccc(-c3ccc(C(F)(F)F)cc3)c2)cc1 | 1.48 | 406 | 411 | 506 |
| Cc1nc2cnc3ccc(C#Cc4cccnc4)cc3c2n1-c1ccc(C(C)(C)C#N)cc1 | 0.661 | 402 | 492 | 557 |
| Cc1cc(OCCC[S+](C)(=O)[O-])cc(C)c1-c1cccc(COc2ccc3c(c2)OC[C@H]3CC(=O)O)c1 | 20.9 | 425 | 491 | 528 |
| CCOCOC[C@H](C[C@H](C)C(=O)NO)NC(=O)c1ccc(Oc2ccccc2)cc1 | 23.5 | 512 | 595 | 636 |
| CCN(CC)CCCC[C@H](NC(=O)[C@H](CC(C)C)NC(=O)[C@H](C)NC(=O)[C@H](Cc1ccccc1)NC(=O)c1ccc(C(C)(C)C)cc1)C(=O)N[C@@H](CO)C(=O)OC | 0.0132 | 446 | 421 | 424 |
| CC(C)(C)OC(=O)Nc1ccc(-c2cc(C(=O)NCCCCCCC(=O)NO)no2)cc1 | 14.8 | 479 | 564 | 598 |
| Cc1c[nH]c(/C=C2\C(=O)Nc3ccccc32)c1CCC(=O)O | 0.0105 | 428 | 381 | 353 |
| CN[S+]([O-])(=O)NC1=NC=CC(=C1F)CC/2=C(C)/C3=CC=C(OC4=NC=CC=N4)C=C3OC2=O | 7.42 | 441 | 577 | 611 |
| CN(C)CCOc1cc(-c2cn[nH]c2)ccc1NC(=O)C1COc2ccccc2O1 (configuration not stated) | 20.9 | 390 | 452 | 426 |
| CC(C)CC(=O)Nc1n[nH]c2c1CN(C(=O)C1CCN(C)CC1)C2(C)C | 16.6 | 514 | 562 | 574 |
| COc1ccc(Cc2nccc3cc(OC)c(OC)cc23)cc1OC | 6.61 | 384 | 533 | 583 |
| S=C(NCc1ccc2c(c1)OCO2)N1CCN(c2ncnc3c2oc2ccccc23)CC1 | 2.95 | 383 | 483 | 567 |
| Cn1c(=O)c2c(ncn2CC2OCCO2)n(C)c1=O | 0.00235 | 294 | 452 | 375 |
| CCCn1c(=O)c2[nH]c(C34CC5CC3C[C@@H](C5)C4)nc2n(CCC)c1=O | 26.3 | 435 | 489 | 524 |
| COc1ccc([S+](=O)([O-])Nc2cccnc2Nc2ccc(O)cc2)cc1 | 4.68 | 479 | 498 | 569 |
| O=C(O)c1ccc(O)c2ncccc12 | 33.2 | 458 | 447 | 491 |
| FC1=CC=C(SC/2=N/N3\C=N/C(=O)/C(=C3/C=C2)C4=C(Cl)C=CC=C4Cl)C(=C1)F | 0.0372 | 453 | 541 | 562 |
| CCC(=O)N[C@H]1CC[C@H](C(=O)N(C)c2ccc(-c3nc4ccccc4o3)cc2)C1 | 23.5 | 548 | 555 | 661 |
| COC(=O)N1CCN(Cc2cccc(NC(=O)Nc3ccc(C)nc3)c2F)CC1 | 74.2 | 486 | 573 | 601 |
| Cc1ccc(N[S+](=O)([O-])c2cccc(C#N)c2)c2[nH]cc(C#N)c12 | 0.833 | 451 | 489 | 576 |

| SMILES | AC50 viability (CU-ACC1 [1]) [µM] | area under concentration-response curve (CU-ACC1 [2]) | area under concentration-response curve (NCI-H295R) | area under concentration-response curve (CU-ACC2) |
| --- | --- | --- | --- | --- |
| CC(C)n1c(/C=C/[C@H](O)C[C@H](O)CC(=O)O)c(-c2ccc(F)cc2)c2ccccc21 | 10.5 | 506 | 567 | 617 |
| Cc1c(CN2CCC(Nc3ncnc4sc(CC(F)(F)F)cc34)CC2)ccc2c1cc(C#N)n2Cc1cn[nH]c1 | 3.32 | 411 | 453 | 540 |
| COc1ccc(Cn2ccc3ccc(C(=O)NO)cc32)cc1 | 23.5 | 524 | 582 | 625 |
| CNC(=O)c1c(F)cccc1Nc1nc(Nc2cc3c(cc2OC)CCN3C(=O)CN(C)C)nc2[nH]ccc12 | 20.9 | 524 | 458 | 526 |
| COCCOC1=CN=C2\C=C/N([C@H](C)C3=NN=C4[N]3C=C(C=C4F)C5=C[N](C)N=C5)C(=O)C2=C1 | 0.0118 | 394 | 322 | 338 |
| Cc1c(C(=O)N2CCOc3ccc(-c4ccc(N)nc4)cc3C2)ccc([S+](C)(=O)[O-])c1F | 8.33 | 428 | 473 | 516 |
| CC[C@H](C)C(=O)O[C@H]1CC\C=C2\C=C/[C@H](C)[C@H](CC[C@@H]3C[C@@H](O)CC(=O)O3)[C@@H]12 | 14.8 | 426 | 484 | 415 |
| CCNC(=O)c1noc(-c2cc(C(C)C)c(O)cc2O)c1-c1ccc(CN2CCOCC2)cc1 | 0.0118 | 226 | 198 | 114 |
| OC[C@H](Cc1ccccc1)Nc1nc(Oc2ccc3c(c2)CCC3)nc2c1ncn2Cc1ccc(-c2ccccc2)cc1 | 14.8 | 430 | 477 | 524 |
| Cc1cc(-c2ncc(CC(=O)Nc3ccc(-c4cnccn4)cn3)cc2C)ccn1 | 7.42 | 429 | 500 | 597 |
| CN(C)C(=O)[C@H](O)[C@H](Cc1ccccc1)NC(=O)c1cc2cc(Cl)ccc2[nH]1 | 0.0118 | 364 | 444 | 420 |
| CN[C@@H]1C[C@H]2O[C@@](C)([C@@H]1OC)n1c3ccccc3c3c4c(c5c6ccccc6n2c5c31)C(=O)NC4 | 0.833 | 385 | 346 | 359 |
| CN(CC#C)C/C1=C/C2=CC=CC=C2OC3=CC=CC=C13 | 33.2 | 419 | 546 | 524 |
| CCc1c(C(=O)NNC(=O)[C@@H](O)c2cc(F)cc(F)c2)ccc(O)c1C | 26.3 | 387 | 441 | 492 |
| C=CC(=O)N1CCC(C2CCNc3c(C(N)=O)c(-c4ccc(Oc5ccccc5)cc4)nn32)CC1 (configuration not stated) | 16.6 | 492 | 553 | 614 |
| O=C(NC[C@H](O)CO)c1ccncc1Nc1ccc(I)cc1F | 11.8 | 397 | 537 | 506 |
| CN(NC(=O)CC(=O)NN(C)C(=S)c1ccccc1)C(=S)c1ccccc1 | 3.72 | 402 | 521 | 567 |
| COC1CCN(CC1)C(=O)C2=CC(=CC=C2F)CC/3=N/NC(=O)C4=CC=CC=C34 | 0.209 | 441 | 423 | 457 |
| Cc1[nH]c2ccc(F)cc2c1-c1nc2c3cccnc3c3ncccc3c2[nH]1 | 1.52 | 326 | 424 | 498 |
| CNC(=O)c1cc(Oc2ccc3nc(N[C@@H]4CCCC[C@H]4O)sc3c2)ccn1 | 20.9 | 481 | 548 | 583 |
| N=C(N)Nc1ccc(C(=O)Oc2ccc3cc(C(=N)N)ccc3c2)cc1 | 33.2 | 460 | 532 | 585 |
| [O-]C(=O)C1=C(C(=C(Cl)C(=C1Cl)Cl)Cl)C/2=C/3\C=C(I)/C(=O)/C(=C3OC4=C2C=C(I)C(=C4I)[O-])I | 13.2 | 421 | 417 | 434 |

| SMILES | AC50 viability (CU-ACC1 [1]) [µM] | area under concentration-response curve (CU-ACC1 [2]) | area under concentration-response curve (NCI-H295R) | area under concentration-response curve (CU-ACC2) |
| --- | --- | --- | --- | --- |
| O=C(Nc1ccccc1Br)N[C@@H]1CCN(c2ccc(C(F)(F)F)cn2)C1 | 20.9 | 477 | 539 | 575 |
| CC(=O)[C@]1(N)Cc2c(O)c3c(c(O)c2[C@@H](O[C@H]2C[C@H](O)[C@H](O)CO2)C1)C(=O)c1ccccc1C3=O | 16.6 | 474 | 534 | 487 |
| O=C(NOCCO)c1ccc2cncn2c1Nc1ccc(I)cc1F | 14.8 | 461 | 549 | 598 |
| Cn1cnc2c(F)c(Nc3ccc(Br)cc3F)c(C(=O)NOCCO)cc21 | 0.0332 | 242 | 159 | 145 |
| COc1ccc2cc3[n+](cc2c1OC)CCc1cc2c(cc1-3)OCO2 | 4.68 | 444 | 557 | 573 |
| CC1=C(C)C\2=C(S1)[N]3C(=NN=C3C(CC(=O)NC4=CC=C(O)C=C4)\N=C2C5=CC=C(Cl)C=C5)C (configuration not stated) | 2.63 | 458 | 527 | 549 |
| O=C1c2cccc(O)c2C(=O)c2c(O)cc(CO)cc21 | 10.5 | 508 | 575 | 656 |
| N[S+](=O)([O-])c1ccc(NC(=S)N2CCN(C/C=C/c3ccccc3)CC2)cc1 | 20.9 | 494 | 523 | 583 |
| O=C(O)c1nn(Cc2ccc(Cl)cc2Cl)c2ccccc12 | 1.66 | 442 | 440 | 464 |
| FC1=C(C=C(C/C2=N/NC(=O)C3=C2C=CC=C3)C=C1)C(=O)N4CCN(CC4)C(=O)C5CC5 | 10.5 | 456 | 434 | 464 |
| Fc1ccc(CNc2ncnc3ccc(F)cc23)cc1 | 2.35 | 415 | 509 | 577 |
| C[C@@H]1CC[C@@]2(CC[C@]3(C)\C(=C/C[C@@H]4[C@@]5(C)CC[C@H](O)C(C)(C)[C@@H]5CC[C@@]34C)[C@@H]2[C@H]1C)C(O)=O | 9.34 | 402 | 419 | 441 |
| Cc1cccc(CC(=O)N2CCc3c2ccc(-c2cn(C)c4ncnc(N)c24)c3F)n1 | 4.68 | 487 | 551 | 644 |
| O=C1CCc2cc(OCCCCc3nnnn3C3CCCCC3)ccc2N1 | 18.6 | 468 | 531 | 579 |
| Clc1ccc(Cn2c(CN3CCCC3)nc3ccccc32)cc1 | 29.5 | 447 |  | 576 |
| Nc1nccc(-c2c(-c3ccc(F)cc3)ncn2C2CCCCC2)n1 | 14.8 | 480 | 556 | 621 |
| COC1CCC(C(=O)c2ccc3nc4c(cc3c2)CCCO4)CC1 (configuration not stated) | 16.6 | 460 |  | 501 |
| CC(C)(C)NC(=O)Nc1cccc(Nc2ncc(F)c(NC(C)(C)CO)n2)c1 | 23.5 | 525 | 571 | 652 |
| COC[C@H]1OC(=O)C2=COC3=C2[C@@]1(C)\C4=C(C5CCC(=O)[C@@]5(C)C[C@H]4OC(C)=O)/C3=O (some centres not stated) | 16.6 | 446 |  | 549 |
| O=C(Nc1cccc(Br)c1)c1cccc([S+](=O)([O-])N2CCCCCC2)c1 | 29.5 | 486 |  | 608 |
